Experimental data as given in patent publication US8486939B2, “Pyrimidinyl and 1,3,5-triazinyl benzimidazoles and their use in cancer therapy” (Pathway Therapeutics Inc., priority 2009, dated 2013).

What was measured:
p110α/p85 = p110α/p85 (Homo sapiens, UniProt P42336); assay: Inhibition of isolated enzyme (lipid kinase assay, [γ33P]ATP, TLC); type: biochemical; details: recombinant enzyme, 100 μM ATP, 1 hr room temperature, average of two experiments
Outline: (§1)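 Each recombinant p110/p85 enzyme (0.1 μg) was incubated with 10 μg L-α-phosphatidylinositol in Tris-HCl pH 7.4 buffer with NaCl and EDTA, 1% final DMSO, and was started with ATP mix (100 μM ATP, 5 mM MgCl2, [γ33P]ATP). Reactions ran 1 h at room temperature, and the lipids were extracted, TLC-separated and phosphorimaged. IC50 came from nine concentrations and is the mean of two experiments.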

p110β/p85 = p110β/p85 (Homo sapiens, UniProt P42338); assay: as above; type: biochemical; details: recombinant enzyme, 100 μM ATP, 1 hr room temperature, average of two experiments
Outline: as §1

p110δ/p85 = p110δ/p85 (Homo sapiens, UniProt O00329); assay: as above; type: biochemical; details: recombinant enzyme, 100 μM ATP, 1 hr room temperature, average of two experiments
Outline: as §1

NZB5 = assay: Cellular growth inhibition (3H-thymidine incorporation); type: cell-based; details: Homo sapiens, five days incubation, 3H-thymidine over the last 6 hrs, read-out: Cell IC50* NZB5
Procedure: (§2) The compounds were evaluated against two early passage human cell lines NZB5 and NZOV9 (Marshall et al., Oncol. Res. 2004, 14, 297). The cells were grown in ITS medium (α-modified minimal essential medium supplemented insulin, transferrin, selenite, and 5% fetal bovine serum) and grown on 96-well tissue culture plates under an atmosphere of 5% O2, 5% CO2, and 90% N2. Individual wells contained 500-1,000 cells (depending on the growth rate) in a volume of 150 μL. Compounds were added at 10-fold concentration steps to a maximum of 20 μM and plates were incubated for five days, with ^3H-thymidine being added over the last 6 hrs. Cells were harvested and incorporated radioactivity measured. Duplicate samples were analyzed for each compound dose with multiple control samples. Data were fitted by a least-squares method to an exponential of the form y=y0+ae^−bx, where y is the radioactivity (corrected for background and normalized to 100% of the control), x is the […], and y0, a, and b are variables, and the IC50 value defined as the compound concentration reducing ^3H-thymidine levels by 50%.

NZOV9 = assay: as above; type: cell-based; details: Homo sapiens, five days incubation, 3H-thymidine over the last 6 hrs, read-out: Cell IC50* NZOV9
Procedure: as §2

Chain of p110δ/p85 (O00329 whole entry, species assumed): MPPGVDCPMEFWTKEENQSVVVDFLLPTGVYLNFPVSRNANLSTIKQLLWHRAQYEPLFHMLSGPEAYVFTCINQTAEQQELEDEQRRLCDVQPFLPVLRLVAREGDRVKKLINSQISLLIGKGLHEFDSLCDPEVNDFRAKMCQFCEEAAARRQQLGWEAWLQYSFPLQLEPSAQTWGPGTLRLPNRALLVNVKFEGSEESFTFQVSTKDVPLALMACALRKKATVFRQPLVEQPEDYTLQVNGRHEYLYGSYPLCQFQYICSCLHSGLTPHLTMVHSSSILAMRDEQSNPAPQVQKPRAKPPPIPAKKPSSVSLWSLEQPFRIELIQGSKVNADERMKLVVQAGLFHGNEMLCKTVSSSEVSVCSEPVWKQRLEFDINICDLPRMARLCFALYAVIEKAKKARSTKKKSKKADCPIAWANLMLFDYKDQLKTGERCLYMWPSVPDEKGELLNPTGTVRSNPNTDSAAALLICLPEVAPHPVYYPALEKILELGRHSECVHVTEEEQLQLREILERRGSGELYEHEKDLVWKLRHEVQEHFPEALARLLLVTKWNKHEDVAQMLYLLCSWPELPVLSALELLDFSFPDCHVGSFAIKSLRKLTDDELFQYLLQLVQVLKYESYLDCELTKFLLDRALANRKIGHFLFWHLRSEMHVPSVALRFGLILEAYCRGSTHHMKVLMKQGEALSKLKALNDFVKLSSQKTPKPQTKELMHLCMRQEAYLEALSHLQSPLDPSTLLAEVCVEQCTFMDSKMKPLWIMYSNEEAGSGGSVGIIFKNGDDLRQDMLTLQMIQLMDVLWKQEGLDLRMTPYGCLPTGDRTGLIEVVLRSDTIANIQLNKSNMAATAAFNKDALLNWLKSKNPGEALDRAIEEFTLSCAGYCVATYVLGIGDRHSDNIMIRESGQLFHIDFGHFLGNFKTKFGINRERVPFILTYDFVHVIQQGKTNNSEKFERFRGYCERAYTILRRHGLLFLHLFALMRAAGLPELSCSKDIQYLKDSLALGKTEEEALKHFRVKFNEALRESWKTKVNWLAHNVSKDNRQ
Chain of p110δ/p85 (P27986 whole entry partner, species assumed): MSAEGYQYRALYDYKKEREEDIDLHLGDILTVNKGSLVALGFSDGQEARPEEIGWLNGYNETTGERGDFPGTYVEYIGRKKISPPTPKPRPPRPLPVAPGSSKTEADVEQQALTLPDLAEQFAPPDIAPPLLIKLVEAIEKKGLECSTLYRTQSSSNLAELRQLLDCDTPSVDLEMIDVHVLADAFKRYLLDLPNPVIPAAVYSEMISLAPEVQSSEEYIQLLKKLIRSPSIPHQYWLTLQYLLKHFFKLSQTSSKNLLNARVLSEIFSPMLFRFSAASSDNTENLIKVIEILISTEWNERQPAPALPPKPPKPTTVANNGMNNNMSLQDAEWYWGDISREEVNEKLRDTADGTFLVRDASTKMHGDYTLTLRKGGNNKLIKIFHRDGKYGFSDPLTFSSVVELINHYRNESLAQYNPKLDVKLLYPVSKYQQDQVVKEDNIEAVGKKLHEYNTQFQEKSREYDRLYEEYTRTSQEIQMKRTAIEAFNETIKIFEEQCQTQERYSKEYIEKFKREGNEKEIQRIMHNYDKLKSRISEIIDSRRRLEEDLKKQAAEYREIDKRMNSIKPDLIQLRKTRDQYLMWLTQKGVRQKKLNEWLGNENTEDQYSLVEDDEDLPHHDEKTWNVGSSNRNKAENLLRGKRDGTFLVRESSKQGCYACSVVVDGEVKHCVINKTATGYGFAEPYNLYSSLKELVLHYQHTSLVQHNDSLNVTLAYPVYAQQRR
Chain of p110β/p85 (P42338 whole entry, species assumed): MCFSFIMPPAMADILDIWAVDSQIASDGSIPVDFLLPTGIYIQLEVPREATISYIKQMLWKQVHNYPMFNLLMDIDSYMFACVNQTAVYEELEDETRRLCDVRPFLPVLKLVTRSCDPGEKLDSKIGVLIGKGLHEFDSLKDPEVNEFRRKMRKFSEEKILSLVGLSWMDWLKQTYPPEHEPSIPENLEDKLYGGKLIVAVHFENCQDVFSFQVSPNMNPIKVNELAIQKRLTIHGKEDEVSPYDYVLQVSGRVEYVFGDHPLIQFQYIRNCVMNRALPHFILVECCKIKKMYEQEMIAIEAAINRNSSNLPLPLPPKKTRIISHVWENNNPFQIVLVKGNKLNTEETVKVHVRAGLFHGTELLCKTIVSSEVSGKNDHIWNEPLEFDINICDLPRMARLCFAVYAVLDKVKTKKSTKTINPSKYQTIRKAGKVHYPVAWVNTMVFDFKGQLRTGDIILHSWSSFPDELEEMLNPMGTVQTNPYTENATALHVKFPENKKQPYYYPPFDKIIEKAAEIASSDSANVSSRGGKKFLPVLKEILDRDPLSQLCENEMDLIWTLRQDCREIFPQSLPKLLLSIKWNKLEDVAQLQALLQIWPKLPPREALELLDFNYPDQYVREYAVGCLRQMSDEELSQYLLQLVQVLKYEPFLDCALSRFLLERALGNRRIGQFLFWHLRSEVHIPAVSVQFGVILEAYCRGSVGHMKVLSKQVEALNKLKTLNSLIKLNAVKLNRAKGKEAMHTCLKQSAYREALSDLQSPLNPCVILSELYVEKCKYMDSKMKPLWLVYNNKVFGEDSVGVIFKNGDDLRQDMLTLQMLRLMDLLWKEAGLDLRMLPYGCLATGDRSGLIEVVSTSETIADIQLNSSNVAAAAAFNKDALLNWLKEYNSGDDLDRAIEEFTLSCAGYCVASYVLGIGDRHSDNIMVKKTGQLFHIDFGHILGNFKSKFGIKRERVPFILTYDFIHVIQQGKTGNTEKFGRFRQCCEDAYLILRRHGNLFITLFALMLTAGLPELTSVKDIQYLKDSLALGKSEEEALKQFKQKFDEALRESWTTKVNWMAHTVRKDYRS
Chain of p110β/p85 (P27986 whole entry partner, species assumed): as the sequence (P27986 whole entry partner, species assumed) above
Chain of p110α/p85 (P42336 whole entry): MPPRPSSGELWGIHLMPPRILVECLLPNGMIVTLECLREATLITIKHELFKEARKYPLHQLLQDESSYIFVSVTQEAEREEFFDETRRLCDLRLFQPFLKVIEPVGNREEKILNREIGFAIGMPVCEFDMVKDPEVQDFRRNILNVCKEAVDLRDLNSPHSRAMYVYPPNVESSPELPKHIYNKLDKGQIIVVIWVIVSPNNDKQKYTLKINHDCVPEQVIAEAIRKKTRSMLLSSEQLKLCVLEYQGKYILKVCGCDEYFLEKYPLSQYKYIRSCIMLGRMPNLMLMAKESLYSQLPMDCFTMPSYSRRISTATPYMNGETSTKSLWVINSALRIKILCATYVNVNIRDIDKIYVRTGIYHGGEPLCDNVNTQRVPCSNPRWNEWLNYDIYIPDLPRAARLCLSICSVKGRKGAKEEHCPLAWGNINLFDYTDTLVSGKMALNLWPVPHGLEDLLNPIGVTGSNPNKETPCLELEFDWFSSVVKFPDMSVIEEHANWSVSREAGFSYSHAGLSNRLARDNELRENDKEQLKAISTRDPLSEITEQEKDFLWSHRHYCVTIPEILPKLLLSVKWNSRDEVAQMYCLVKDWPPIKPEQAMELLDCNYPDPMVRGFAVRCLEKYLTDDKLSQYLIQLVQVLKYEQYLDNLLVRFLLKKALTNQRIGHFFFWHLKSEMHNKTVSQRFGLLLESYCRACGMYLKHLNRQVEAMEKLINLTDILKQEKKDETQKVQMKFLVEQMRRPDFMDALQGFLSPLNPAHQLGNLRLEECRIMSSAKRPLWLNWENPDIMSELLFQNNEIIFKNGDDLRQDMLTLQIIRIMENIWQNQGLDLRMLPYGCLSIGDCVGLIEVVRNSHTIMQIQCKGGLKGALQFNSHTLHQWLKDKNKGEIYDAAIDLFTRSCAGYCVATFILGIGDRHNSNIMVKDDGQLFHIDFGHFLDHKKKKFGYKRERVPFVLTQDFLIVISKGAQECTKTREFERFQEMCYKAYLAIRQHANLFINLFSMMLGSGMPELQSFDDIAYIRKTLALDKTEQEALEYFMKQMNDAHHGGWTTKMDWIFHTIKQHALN
Chain of p110α/p85 (P27986 whole entry partner): as the sequence (P27986 whole entry partner, species assumed) above

SMILES | IC50 (p110α/p85) | IC50 (p110β/p85) | IC50 (p110δ/p85) | melting point | IC50 (NZB5) | IC50 (NZOV9)
COc1ccncc1Nc1nc(N2CCOCC2)nc(-n2c(C(F)F)nc3c(OC)cccc32)n1 [Example 27, 4-[2-(difluoromethyl)-4-methoxy-1H-benzimidazol-1-yl]-N-(4-methoxy-3-pyridinyl)-6-(4-morpholinyl)-1,3,5-triazin-2-amine] | < 100 nM | 100 to 1000 nM | < 100 nM | 239 to 241 °C | 100 to 1000 nM | < 100 nM
COc1cccc2c1nc(C(F)F)n2-c1nc(Nc2ccc(Cl)nc2)nc(N2CCOCC2)n1 [Example 30, N-(6-chloro-3-pyridinyl)-4-[2-(difluoromethyl)-4-methoxy-1H-benzimidazol-1-yl]-6-(4-morpholinyl)-1,3,5-triazin-2-amine] | < 100 nM | 100 to 1000 nM | < 100 nM | 260 to 262 °C | < 100 nM | < 100 nM
COc1cccc2c1nc(C(F)F)n2-c1nc(Nc2ccncn2)nc(N2CCOCC2)n1 [Example 36, 4-[2-(difluoromethyl)-4-methoxy-1H-benzimidazol-1-yl]-6-(4-morpholinyl)-N-(4-pyrimidinyl)-1,3,5-triazin-2-amine] | < 100 nM | 100 to 1000 nM | < 100 nM | 234 to 236 °C | < 100 nM | < 100 nM
COc1cc(Nc2nc(N3CCOCC3)nc(-n3c(C(F)F)nc4c(OC)cccc43)n2)ncn1 [Example 32, 4-(2-(difluoromethyl)-4-methoxy-1H-benzimidazol-1-yl)-N-(6-methoxypyrimidin-4-yl)-6-morpholino-1,3,5-triazin-2-amine] | < 100 nM | 100 to 1000 nM | < 100 nM | 256 to 259 °C | > 10000 nM | < 100 nM
COc1cccc2c1nc(C(F)F)n2-c1nc(Nc2cccnn2)nc(N2CCOCC2)n1 [Example 33, 4-[2-(difluoromethyl)-4-methoxy-1H-benzimidazol-1-yl]-6-(4-morpholinyl)-N-(3-pyridazinyl)-1,3,5-triazin-2-amine] | < 100 nM | 100 to 1000 nM | < 100 nM | 261 to 263 °C | 100 to 1000 nM | < 100 nM
COc1cccc2c1nc(C(F)F)n2-c1nc(Nc2cncnc2)nc(N2CCOCC2)n1 [Example 31, 4-[2-(difluoromethyl)-4-methoxy-1H-benzimidazol-1-yl]-6-(4-morpholinyl)-N-(5-pyrimidinyl)-1,3,5-triazin-2-amine] | < 100 nM | 100 to 1000 nM | < 100 nM | 293 to 295 °C | < 100 nM | < 100 nM
COc1ccc(Nc2nc(N3CCOCC3)nc(-n3c(C(F)F)nc4c(OC)cccc43)n2)cn1 [Example 28, 4-[2-(difluoromethyl)-4-methoxy-1H-benzimidazol-1-yl]-N-(6-methoxy-3-pyridinyl)-6-(4-morpholinyl)-1,3,5-triazin-2-amine] | < 100 nM | < 100 nM | < 100 nM | 201 to 202 °C | < 100 nM | < 100 nM
COc1cccc2c1nc(C(F)F)n2-c1nc(Nc2ccc(N(C)C)nc2)nc(N2CCOCC2)n1 [Example 39, N^5-[4-[2-(difluoromethyl)-4-methoxy-1H-benzimidazol-1-yl]-6-(4-morpholinyl)-1,3,5-triazin-2-yl]-N^2,N^2-dimethyl-2,5-pyridinediamine] | < 100 nM | 100 to 1000 nM | < 100 nM | 136 to 137 °C | < 100 nM | < 100 nM
COc1cccc2c1nc(C(F)F)n2-c1nc(Nc2ccc(N)nc2)nc(N2CCOCC2)n1 [Example 37, N^5-[4-[2-(difluoromethyl)-4-methoxy-1H-benzimidazol-1-yl]-6-(4-morpholinyl)-1,3,5-triazin-2-yl]-2,5-pyridinediamine] | < 100 nM | 100 to 1000 nM | < 100 nM | 267 to 270 °C | < 100 nM | < 100 nM

The next lines start with results.

IC50 (p110α/p85) | IC50 (p110β/p85) | IC50 (p110δ/p85) | melting point | SMILES | IC50 (NZB5) | IC50 (NZOV9)
< 100 nM | < 100 nM | < 100 nM | 192 to 193 °C | FC(F)c1nc2ccccc2n1-c1nc(NCc2ccccn2)nc(N2CCOCC2)n1 [Example 13, 4-[2-(difluoromethyl)-1H-benzimidazol-1-yl]-6-(4-morpholinyl)-N-(2-pyridinylmethyl)-1,3,5-triazin-2-amine] | 100 to 1000 nM | 100 to 1000 nM
< 100 nM | 100 to 1000 nM | < 100 nM | 271 to 273 °C | FC(F)c1nc2ccccc2n1-c1nc(Nc2cccnn2)nc(N2CCOCC2)n1 [Example 23, 4-[2-(difluoromethyl)-1H-benzimidazol-1-yl]-6-(4-morpholinyl)-N-(3-pyridazinyl)-1,3,5-triazin-2-amine] | 100 to 1000 nM | 100 to 1000 nM
< 100 nM | 100 to 1000 nM | < 100 nM | 199 to 201 °C | FC(F)c1nc2ccccc2n1-c1nc(-c2cccnc2)nc(N2CCOCC2)n1 [Example 47, 2-(difluoromethyl)-1-[4-(4-morpholinyl)-6-(3-pyridinyl)-1,3,5-triazin-2-yl]-1H-benzimidazole] | 100 to 1000 nM | 100 to 1000 nM
1000 to 10000 nM | 1000 to 10000 nM | 1000 to 10000 nM | 237 to 239 °C | O=S(=O)(c1ccccc1)c1nc(N2CCOCC2)nc(-n2c(C(F)F)nc3ccccc32)n1 [Example 12, 2-(difluoromethyl)-1-[4-(4-morpholinyl)-6-(phenylsulfonyl)-1,3,5-triazin-2-yl]-1H-benzimidazole] | > 10000 nM | > 10000 nM
100 to 1000 nM | 100 to 1000 nM | 100 to 1000 nM | 160 to 162 °C | CN(c1ccccc1)c1nc(N2CCOCC2)nc(-n2c(C(F)F)nc3ccccc32)n1 [Example 7, 4-[2-(difluoromethyl)-1H-benzimidazol-1-yl]-N-methyl-6-(4-morpholinyl)-N-phenyl-1,3,5-triazin-2-amine] | 100 to 1000 nM | 100 to 1000 nM
< 100 nM | 100 to 1000 nM | < 100 nM | 225 to 226 °C | Cn1cc(Nc2nc(N3CCOCC3)nc(-n3c(C(F)F)nc4ccccc43)n2)cn1 [Example 25, 4-[2-(difluoromethyl)-1H-benzimidazol-1-yl]-N-(1-methyl-1H-pyrazol-4-yl)-6-(4-morpholinyl)-1,3,5-triazin-2-amine] | 100 to 1000 nM | 100 to 1000 nM
< 100 nM | < 100 nM | < 100 nM | 200 to 201 °C | COc1cccc2c1nc(C(F)F)n2-c1nc(N2CCOCC2)nc(N(C)c2cccnc2)n1 [Example 3, 4-[2-(difluoromethyl)-4-methoxy-1H-benzimidazol-1-yl]-N-methyl-6-(4-morpholinyl)-N-(3-pyridinyl)-1,3,5-triazin-2-amine] | 100 to 1000 nM | < 100 nM
< 100 nM | < 100 nM | < 100 nM | 228 to 230 °C | FC(F)c1nc2ccccc2n1-c1nc(Nc2cccnc2)nc(N2CCOCC2)n1 [Example 1, 4-[2-(difluoromethyl)-1H-benzimidazol-1-yl]-6-(4-morpholinyl)-N-(3-pyridinyl)-1,3,5-triazin-2-amine] | 100 to 1000 nM | 100 to 1000 nM
< 100 nM | 100 to 1000 nM | < 100 nM | 221 to 223 °C | COc1cccc2c1nc(C(F)F)n2-c1nc(Nc2cccnc2)nc(N2CCOCC2)n1 [Example 2, 4-[2-(difluoromethyl)-4-methoxy-1H-benzimidazol-1-yl]-6-(4-morpholinyl)-N-(3-pyridinyl)-1,3,5-triazin-2-amine] | < 100 nM | < 100 nM
100 to 1000 nM | 100 to 1000 nM | < 100 nM | 160 to 161 °C | FC(F)c1nc2ccccc2n1-c1nc(NCc2cccnc2)nc(N2CCOCC2)n1 [Example 14, 4-[2-(difluoromethyl)-1H-benzimidazol-1-yl]-6-(4-morpholinyl)-N-(3-pyridinylmethyl)-1,3,5-triazin-2-amine] | 1000 to 10000 nM | 100 to 1000 nM
100 to 1000 nM | 100 to 1000 nM | < 100 nM | 171 to 174 °C | FC(F)c1nc2ccccc2n1-c1nc(Nc2ccccc2)nc(N2CCOCC2)n1 [Example 6, 4-[2-(difluoromethyl)-1H-benzimidazol-1-yl]-6-(4-morpholinyl)-N-phenyl-1,3,5-triazin-2-amine] | 100 to 1000 nM | 100 to 1000 nM
